According to patent US6603023B2 (priority 1996, dated 2003):
Where “and” joins values, the source holds several entries; their conditions need not be identical. Equal entries are not always repeated. Where two headings read alike, the source gives them in different places.

How the values were obtained:
[1] = test system: CCRF-CEM human T-cell acute lymphoblastic leukemia cell line; test: XTT cytotoxicity (cell growth inhibition), CCRF-CEM
Description: (§1) The DC-3F hamster lung fibroblast cell line and its actinomycin D-selected sublines (DC-3F/ADII and DC-3F/ADX) were obtained from the Memorial Sloan-Kettering Cancer Center (MSKCC).
(§2) The drug-resistant cell lines were continuously cultured in the presence of the selecting agent, AD, DX, VBL or VM to maintain the drug resistant phenotypes. […] All cells were cultured in RPMI 1640-10% FBS at 37° C. 5% CO2 (see below).
(§3) The cells were cultured at an initial density of 5×10^4 cells/mL. They were maintained in a 5% CO2-humidified atmosphere at 37° C. in RPMI-1640 medium (GIBCO-BRL, Gaithersburg, Md.) containing penicillin (100 U/mL), streptomycin ([…]) (GIBCO-BRL) and 10% heat inactivate fetal bovine serum. Culture for cell suspension (such as for CCRF-CEM, P388 and sublines), were performed by the XTT-microculture tetrazonium method (Scudiero, D. A. et al., Cancer Res. 1988, 48, 4827-4833) in duplicate in 96-well microtiter plates.
(§4) 2′,3′-Bis(methoxy-4-nitro-5-sufophenyl)-5-[(phenylamino)carbonyl]2H-tetrazolium hyudroxide (XTT) was prepared at 1 mg/mL in prewarmed (37° C.) medium without serum. Phenazine methosulfate (PMS) and fresh XTT were mixed together to obtain 0.025 mM PMS-XTT solution (25 μL of the stock 5 mM PMS was added per 5 mL of 1 mg/mL XTT). Following a 72 h incubation, 50 μL of the assay aliquots were added to each well of the cell culture. After incubation at 37° C. for 4 h, absorbance at 450 nm and 630 nm was measured with a microplate reader (EL340, Bio-Tek Instruments, Inc., Winooski, Vt.).

CCRF-CEM/Taxol® = test: cells; assay type: cell-based, human
Description: as §2, §3, §4

CCRF-CEM/VBL100 = test: cells; assay type: cell-based, human; conditions: for IC50: Homo sapiens, CCRF-CEM
Description: as §2, §3, §4

CCRF-CEM/VM1 = test: cells; assay type: cell-based, human
Description: as §2, §3, §4

[2] = test system: DC-3F hamster lung fibroblast cell line; test: SRB cytotoxicity, DC-3F; assay type: cell-based; conditions: Mesocricetus auratus, DC3F, Table 3
Description: as §1, §2
(§5) The cytotoxicity of the drug toward the monolayer cell cultures (such as DC-3F, MCF-7, SK-N-As and sublines) was determined in 96-well microtiter plates by the SRB method as described by Skehan and co-workers (Skehan, P., et al., J. Natl. Cancer Inst. 1990, 82, 1107-1112) for measuring the cellular protein content. Cultures were fixed with trichloroacetic acid and then stained for 30 min with 0.4% suforhodamine B dissolved in 1% acetic acid. Unbound dye was removed by acetic acid washes, and the protein-bound dye was extracted with an unbuffered Tris base (tris(hydroxy-methyl)aminomethane) for determination of absorbance at 570 nm in a 96-well microtiter plate reader. The experiments were carried out in duplicate. Each run entailed six to seven concentrations of the tested drugs. Data were analyzed with the median-effect plot (Chou, T.-C. & Talalay, P. T. (1984) Adv. Enzyme Regul. 22, 27-55) using a previously described computer program (Chou, J., & Chou T.-C. 1987, Dose-effect analysis with microcomputers: Quantitation of ED50, synergism, antagonism, low-dose risk, reception-ligand binding and enzyme kinetics, IBM-PC software and manual, Biosoft, Cambridge, U.K.).

DC-3F/ADII = test: SRB cytotoxicity, DC-3F/ADII; assay type: cell-based, hamster; conditions: Mesocricetus auratus, DC3F
Description: as §1, §2, §5
(§6) Concerning Table 3, experiments were carried out using the cell lines DC-3F (parent hamster lung cells), DC-3F/ADII (moderate multidrug-resistant (MDR) cells) and DC-3F/ADX (very strong MDR cells).

DC-3F/ADX = test: cells; assay type: cell-based, hamster; conditions: DC3F/ADX, Table 3
Description: as §1, §2, §5, §6

[3] = test system: MDR human mammary adenocarcinoma MCF-7/Adr xenograft; test: in vivo; conditions: MCF-7/Adr; i.v. infusion (order wraps over rows r16-r17)
Description: DMSO was used as a vehicle for epothilones. Each mouse received ≦40 μL DMSO in all experiments.
Athymic nude mice (nu/nu) were used for MX-1 and MCF-7/Adr human mammary carcinoma xenografts. Mice were obtained from Taconic Laboratory Animals and Service (Germantown, N.Y.: outbred, Swiss background).

[4] = test system: PC-3 Human Prostate Carcinoma; test: PC-3 xenograft; assay type: in vivo, nude mice
[5] = test system: A549 Human Lung Carcinoma; test: A549 xenograft; assay type: in vivo, nude mice
[6] = Homo sapiens, CCRF-CEM, 72 h, Table 1A, XTT
[7] = Homo sapiens, CCRF-CEM, Table 5, single determinations
[8] = Homo sapiens, CCRF-CEM, read-out: IC50 (mean ± of determinations, in parentheses), Table 5
[9] = Table 5, single determinations, listed as VP-16
[10] = dEpoB 30 mg/kg 18 hr i.v. infusion, Taxol 16 mg/kg 6 hr infusion, VBL 2 and VP-16 25 mg/kg i.v. inj
[11] = Q2D x 3: dEpoB 30 mg/kg 18 hr i.v. infusion, Taxol 15 mg/kg 6 hr infusion, VBL 2 and VP-16 25 mg/kg i.v. inj

## COc1cc([C@@H]2c3cc4c(cc3[C@@H](O[C@@H]3O[C@@H]5CO[C@@H](C)O[C@H]5[C@H](O)[C@H]3O)[C@H]3COC(=O)[C@H]23)OCO4)cc(OC)c1O [Etoposide, etoposide]
[1]; Homo sapiens, CCRF-CEM
  IC50: 0.29 µM
[1]; [6]
  IC50: 0.29 µM
[1]; Homo sapiens, CCRF-CEM, Table 2
  IC50: 0.221 µM
[1]; [7]
  IC50: 0.259 µM
[1]; [8]
  IC50: 0.293 µM
[1]; [9]
  IC50: 0.323 µM and 0.296 µM
CCRF-CEM/Taxol®; Homo sapiens, CCRF-CEM, 72 h
  IC50: 1.32 µM
CCRF-CEM/Taxol®; Table 1A, CCRF-CEM/Taxol vs CCRF-CEM
  (C)/(A) IC50 ratio: 4.5
CCRF-CEM/VBL100; CCRF-CEM/VBL MDR cells
  Potency in parentheses relative to Epo B in CCRF-CEM cells: 1/29514
  Potency in square brackets relative to Epo B in CCRF-CEM/VBL MDR cells: 1/4919
CCRF-CEM/VBL100
  IC50: 10.3 µM
CCRF-CEM/VBL100; 72 h, Table 1A, XTT
  IC50: 10.3 µM
CCRF-CEM/VBL100; Table 2, CCRF-CEM/VLB
  IC50: 7.39 µM
CCRF-CEM/VBL100; read-out: IC50 (mean ± of determinations, in parentheses), Table 5
  IC50: 10.3 µM
CCRF-CEM/VBL100; Table 1A, CCRF-CEM/VBL100 vs CCRF-CEM
  (B)/(A) IC50 ratio: 35
CCRF-CEM/VBL100; Table 5
  relative resistance (fold) vs parent cell line: (35.3X)
CCRF-CEM/VM1; CCRF-CEM/VM1 cells
  fold resistance vs parent CCRF-CEM: 117 fold
CCRF-CEM/VM1; [6]
  IC50: 34.4 µM
CCRF-CEM/VM1; Homo sapiens, CCRF-CEM, Table 2, CCR-CEM/VM-1
  IC50: 34.5 µM
CCRF-CEM/VM1; [7]
  IC50: 35.1 µM
CCRF-CEM/VM1; [8]
  IC50: 34.4 µM
CCRF-CEM/VM1; Table 1A, CCRF-CEM/VM1 vs CCRF-CEM
  (D)/(A) IC50 ratio: 117
CCRF-CEM/VM1; Table 5
  relative resistance (fold) vs parent cell line: (117.4X)
CCRF-CEM/VM1; [9]
  IC50: 42.2 µM and 25.9 µM
[2]
  IC50: 0.0339 µM
DC-3F/ADII
  IC50: 0.632 µM
DC-3F/ADX
  IC50: 12.1 µM
[3]
  Therapeutic effect Rank Order: dEpoB >> VP-16,
[4]; PC-3, i.v. infusion (order wraps over rows r24-r25)
  Therapeutic effect Rank Order: dEpoB >> VP-16
[4]; [10]
  Average Body Weight (change), Day 9: +0.3 g
  Average Body Weight (change), Day 11: -0.1 g
  Average Body Weight (change), Day 13: -2.4 g
  Average Tumor Size (TC), Day 9: 1.00 TC
  Average Tumor Size (TC), Day 11: 1.12 TC
  Average Tumor Size (TC), Day 13: 0.88 TC
  Tumor Disappearance: 0/3
[4]; initial weight, dEpoB 30 mg/kg 18 hr i.v. infusion, Taxol 16 mg/kg 6 hr infusion, VBL 2 and VP-16 25 mg/kg i.v. inj
  Average Body Weight, Day 5: 24.9 g
[5]; A549, i.v. infusion
  Therapeutic effect Rank Order: Taxol ®, dEpoB, VBL > VP-16
[5]; [11]
  Average Body Weight (change), Day 11: +0.1 g
  Average Body Weight (change), Day 13: -0.2 g
  Average Body Weight (change), Day 15: -2.2 g
  Tumor Disappearance: 0/3
[5]; Q2D x 3: dEpoB 30 mg/kg 18 hr i.v. infusion, Taxol 15 mg/kg 6 hr infusion, VBL 2 and VP-16 25 mg/kg i.v. inj, control 96
  Average Tumor Size, Day 11: 59 mm^3
[5]; Q2D x 3: dEpoB 30 mg/kg 18 hr i.v. infusion, Taxol 15 mg/kg 6 hr infusion, VBL 2 and VP-16 25 mg/kg i.v. inj, control 128
  Average Tumor Size, Day 13: 150 mm^3
[5]; Q2D x 3: dEpoB 30 mg/kg 18 hr i.v. infusion, Taxol 15 mg/kg 6 hr infusion, VBL 2 and VP-16 25 mg/kg i.v. inj, control 306
  Average Tumor Size, Day 15: 275 mm^3
[5]; Q2D x 3: dEpoB 30 mg/kg 18 hr i.v. infusion, Taxol 15 mg/kg 6 hr infusion, VBL 2 and VP-16 25 mg/kg i.v. inj, control 553
  Average Tumor Size, Day 17: 536 mm^3
[5]; initial weight, Q2D x 3: dEpoB 30 mg/kg 18 hr i.v. infusion, Taxol 15 mg/kg 6 hr infusion, VBL 2 and VP-16 25 mg/kg i.v. inj
  Average Body Weight, Day 7: 27.2 g
